Assay: Tissue distribution of [^14C] DHA
Assay type: in vivo, rats
Details: for Total Amounts of radioactivity in all measured tissues per gram / % of total AUC / Half-lives of radioactivity / Tissue AUC of radioactivity / Distribution of radioactivity: male rats i.v. 3 mg/20 μCi/kg
Description: Rats treated with a single [^14C] DHA dose of 3 mg/20 μCi/kg intravenously (5 rats per group) were anesthaetized by isofluorane and euthanized via cardiac puncture at 1, 6, 24, 48, 72, 96, and 192 hours, post-dosing. Blood, liver, brain, eyes, adrenals, muscle, lungs, heart, liver, kidneys, spleen, stomach, small intestine, large intestine, perirenal fat and bone marrow samples were removed from each animal by gross dissection. The gastrointestinal tract (GI) was separated into the stomach (oesophagus and stomach), small intestine, and large intestine. Contents were procured from each GI segment. After flushing with saline, these and other tissues were stored. Tissues were rinsed gently, but thoroughly with water to remove remaining traces of blood before storage. Dissecting instruments were also washed between tissue procurements to avoid cross-contamination.
For most of the tissues 20% (w/w) aqueous homogenates of the tissue were prepared. Aqueous homogenates of the faecal and GI content samples were also prepared. Metabolism cages were washed with a solution of 2% Count-off® and the volume was measured. Radioactivity in the plasma samples and in aliquots (approx. 0.02–1.0 ml) of urine and cage washings was determined. The blood cells (primarily erythrocytes), perirenal fat (approx. 0.2 g), bone marrow samples (approx. 0.1 ml), and approximately 300-μl aliquots of the homogenates of faeces, liver, kidneys, heart, brain, stomach and carcass were solubilized with SolvableTM tissue solubilizer (Perkin-Elmer Life and Analytical Sciences, Boston, MA). The homogenates of faeces, stomach content, and intestinal contents were extracted with 50% methanol for 24 hours. Aliquots of blood and pooled urine samples from selected intervals were also analysed for DHA content directly.
Total radioactivity in the collected tissue samples were quantified in duplicate. Weighed tissue aliquots (~0.2 g) were digested overnight in 2 ml of Solvable® tissue solubilizer (Perkin-Elmer Life and Analytical Sciences, Boston, MA) at 50°C. Coloured samples were decolourized by adding a maximum of 0.2 ml of 30% H2O2 for 30–60 minutes. Scintillation cocktail (Hyonic Fluor; Perkin-Elmer Boston. Massachusetts, USA) was then added and radioactivity determined in a Perkin-Elmer Tri-Carb 3100 TR scintillation spectrophotometer (Packard Instrument Co., Downers Grove, Illinois, USA). Faeces and intestinal contents were thoroughly homogenized before taking aliquots. Plasma was also analysed using the HPLC-ECD system to measure the concentration of unchanged DHA, as described by Li et al.

- Total Amounts of radioactivity in all measured tissues per gram (1 hr): 87,187 ng equivalents/tissue gram
- Total Amounts of radioactivity in all measured tissues per gram (1 hr, listed as [^14C]-dihydroartemisinin): 87186.55 ng equivalents/tissue gram
- radioactivity in the total measured tissues amassed in the small intestine and its content (1 hr, rats i.v. 3 mg/20 μCi/kg): approximately 62.6%
- Total Amounts of radioactivity in all measured tissues per gram (6 hr): 86023 ng equivalents/tissue gram
- Total Amounts of radioactivity in all measured tissues per gram (6 hr, listed as [^14C]-dihydroartemisinin): 86023.26 ng equivalents/tissue gram
- Total Amounts of radioactivity in all measured tissues per gram (24 hr): 21,457 ng equivalents/tissue gram
- Total Amounts of radioactivity in all measured tissues per gram (24 hr, listed as [^14C]-dihydroartemisinin): 21457.06 ng equivalents/tissue gram
- Total Amounts of radioactivity in all measured tissues per gram (48 hr): 16,390 ng equivalents/tissue gram
- Total Amounts of radioactivity in all measured tissues per gram (48 hr, listed as [^14C]-dihydroartemisinin): 16390.68 ng equivalents/tissue gram
- Total Amounts of radioactivity in all measured tissues per gram (72 hr): 15,831 ng equivalents/tissue gram
- Total Amounts of radioactivity in all measured tissues per gram (72 hr, listed as [^14C]-dihydroartemisinin): 15831.77 ng equivalents/tissue gram
- Total Amounts of radioactivity in all measured tissues per gram (96 hr): 11,385 ng equivalents/tissue gram
- Total Amounts of radioactivity in all measured tissues per gram (96 hr, listed as [^14C]-dihydroartemisinin): 11385.67 ng equivalents/tissue gram
- Total Amounts of radioactivity in all measured tissues per gram (192 hr): 13,961 ng equivalents/tissue gram
- Total Amounts of radioactivity in all measured tissues per gram (192 hr, listed as [^14C]-dihydroartemisinin): 13961.18 ng equivalents/tissue gram
- % of total AUC (Adrenals): 10.59%
- Half-lives of radioactivity (Adrenals): 92.48 ± 44.34 h
- Tissue AUC of radioactivity (Adrenals): 448,390 ng·hr/g
- Tissue AUC of radioactivity (Adrenals, listed as [^14C]-dihydroartemisinin): 448390 ± 273502 ng·h/g
- Distribution of radioactivity (Blood, 1 hr): 936.19 ng equivalents/tissue gram
- Distribution of radioactivity (Blood, 6 hr): 795.07 ng equivalents/tissue gram
- Distribution of radioactivity (Blood, 24 hr): 366.76 ng equivalents/tissue gram
- Distribution of radioactivity (Blood, 48 hr): 252.05 ng equivalents/tissue gram
- Distribution of radioactivity (Blood, 72 hr): 194.59 ng equivalents/tissue gram
- Distribution of radioactivity (Blood, 96 hr): 130.92 ng equivalents/tissue gram
- Distribution of radioactivity (Blood, 192 hr): 118.71 ng equivalents/tissue gram
- % of total AUC (Blood): 1.07%
- Half-lives of radioactivity (Blood): 122.13 ± 8.73 h
- Tissue AUC of radioactivity (Blood): 45463 ± 6810 ng·h/g
- % of total AUC (Brain): 0.81%
- Half-lives of radioactivity (Brain): 72.21 ± 6.33 h
- Tissue AUC of radioactivity (Brain): 34,189 ng·hr/g
- Tissue AUC of radioactivity (Brain, listed as [^14C]-dihydroartemisinin): 34189 ± 4885 ng·h/g
- % of total AUC (Eyes): 0.39%
- Half-lives of radioactivity (Eyes): 75.22 ± 9.40 h
- Tissue AUC of radioactivity (Eyes): 16519 ± 3048 ng·h/g
- % of total AUC (Fat): 0.60%
- Half-lives of radioactivity (Fat): 131.69 ± 21.94 h
- Tissue AUC of radioactivity (Fat): 25253 ± 1490 ng·h/g
- Distribution of radioactivity (Heart, 1 hr): 1512.27 ng equivalents/tissue gram
- Distribution of radioactivity (Heart, 6 hr): 1107.89 ng equivalents/tissue gram
- Distribution of radioactivity (Heart, 24 hr): 647.58 ng equivalents/tissue gram
- Distribution of radioactivity (Heart, 48 hr): 527.3 ng equivalents/tissue gram
- Distribution of radioactivity (Heart, 72 hr): 568.43 ng equivalents/tissue gram
- Distribution of radioactivity (Heart, 96 hr): 377.26 ng equivalents/tissue gram
- Distribution of radioactivity (Heart, 192 hr): 443.20 ng equivalents/tissue gram
- % of total AUC (Heart): 2.47%
- Half-lives of radioactivity (Heart): 74.35 ± 25.84 h
- Tissue AUC of radioactivity (Heart): 104,598 ng·hr/g
- Tissue AUC of radioactivity (Heart, listed as [^14C]-dihydroartemisinin): 104598 ± 24036 ng·h/g
- Distribution of radioactivity (Kidneys, 1 hr): 4097.87 ng equivalents/tissue gram
- Distribution of radioactivity (Kidneys, 6 hr): 4502.00 ng equivalents/tissue gram
- Distribution of radioactivity (Kidneys, 24 hr): 2535.56 ng equivalents/tissue gram
- Distribution of radioactivity (Kidneys, 48 hr): 2324.72 ng equivalents/tissue gram
- Distribution of radioactivity (Kidneys, 72 hr): 3286.27 ng equivalents/tissue gram
- Distribution of radioactivity (Kidneys, 96 hr): 1802.63 ng equivalents/tissue gram
- Distribution of radioactivity (Kidneys, 192 hr): 1819.89 ng equivalents/tissue gram
- % of total AUC (Kidneys): 4.53%
- Half-lives of radioactivity (Kidneys): 77.90 ± 8.41 h
- Tissue AUC of radioactivity (Kidneys): 191,781 ng·hr/g
- Tissue AUC of radioactivity (Kidneys, listed as [^14C]-dihydroartemisinin): 191781 ± 66422 ng·h/g
- Distribution of radioactivity (LI Content, 1 hr): 2914.59 ng equivalents/tissue gram
- Distribution of radioactivity (LI Content, 6 hr): 35567.01 ng equivalents/tissue gram
- Distribution of radioactivity (LI Content, 24 hr): 5127.28 ng equivalents/tissue gram
- Distribution of radioactivity (LI Content, 48 hr): 2037.53 ng equivalents/tissue gram
- Distribution of radioactivity (LI Content, 72 hr): 1426.62 ng equivalents/tissue gram
- Distribution of radioactivity (LI Content, 96 hr): 491.66 ng equivalents/tissue gram
- Distribution of radioactivity (LI Content, 192 hr): 1333.83 ng equivalents/tissue gram
- % of total AUC (LI Content): 13.90%
- Half-lives of radioactivity (LI Content): 37.20 ± 6.08 h
- Tissue AUC of radioactivity (LI Content): 588,542 ng·hr/g
- Tissue AUC of radioactivity (LI Content, listed as [^14C]-dihydroartemisinin): 588542 ± 104261 ng·h/g
- Distribution of radioactivity (Large intestine (LI), 1 hr): 1818.56 ng equivalents/tissue gram
- Distribution of radioactivity (Large intestine (LI), 6 hr): 8394.43 ng equivalents/tissue gram
- Distribution of radioactivity (Large intestine (LI), 24 hr): 1420.58 ng equivalents/tissue gram
- Distribution of radioactivity (Large intestine (LI), 48 hr): 562.96 ng equivalents/tissue gram
- Distribution of radioactivity (Large intestine (LI), 72 hr): 509.29 ng equivalents/tissue gram
- Distribution of radioactivity (Large intestine (LI), 96 hr): 220.41 ng equivalents/tissue gram
- Distribution of radioactivity (Large intestine (LI), 192 hr): 304.72 ng equivalents/tissue gram
- % of total AUC (Large intestine (LI)): 1.66%
- Half-lives of radioactivity (Large intestine (LI)): 62.53 ± 43.59 h
- Tissue AUC of radioactivity (Large intestine (LI)): 70,217 ng·hr/g
- Tissue AUC of radioactivity (Large intestine (LI), listed as [^14C]-dihydroartemisinin): 70217 ± 25001 ng·h/g
- Distribution of radioactivity (Liver, 1 hr): 4594.85 ng equivalents/tissue gram
- Distribution of radioactivity (Liver, 6 hr): 3516.69 ng equivalents/tissue gram
- Distribution of radioactivity (Liver, 24 hr): 1403.29 ng equivalents/tissue gram
- Distribution of radioactivity (Liver, 48 hr): 1104.94 ng equivalents/tissue gram
- Distribution of radioactivity (Liver, 72 hr): 1503.74 ng equivalents/tissue gram
- Distribution of radioactivity (Liver, 96 hr): 842.90 ng equivalents/tissue gram
- Distribution of radioactivity (Liver, 192 hr): 1270.24 ng equivalents/tissue gram
- % of total AUC (Liver): 4.07%
- Half-lives of radioactivity (Liver): 95.18 ± 37.90 h
- Tissue AUC of radioactivity (Liver): 172,474 ng·hr/g
- Tissue AUC of radioactivity (Liver, listed as [^14C]-dihydroartemisinin): 172474 ± 85780 ng·h/g
- Distribution of radioactivity (Lungs, 1 hr): 1161.72 ng equivalents/tissue gram
- Distribution of radioactivity (Lungs, 6 hr): 1040.99 ng equivalents/tissue gram
SMILES: C[C@@H]1CC[C@H]2[C@@H]([14CH3])C(O)O[C@@H]3O[C@@]4(C)CC[C@@H]1[C@]32OO4 (stereo partly drawn) [[^14C] DHA, [16-^14C] DHA]

Source: PMC2694832, “Pharmacokinetics, tissue distribution and mass balance of radiolabeled dihydroartemisinin in male rats” (Malaria Journal, 2009)
